Holding throughout (type): functional
Assay [1] relates to Rattus norvegicus. The assay can be described thus: Anti-inflammatory activity in rat assessed as reduction of carrageenan-induced paw edema at 150 umol/kg, ip after 3.5 hrs relative to control. (In general: The carrageenan paw model is a standard test of acute inflammation.)
Assay [2] concerns Rattus norvegicus. The assay can be described thus: Antihyperlipidemic activity in rat assessed as reduction of tyloxapol-induced plasma triglyceride level at 150 umol/kg, ip after 24 hrs relative to control.
Assay [3] relates to Rattus norvegicus. The assay can be described thus: Antihyperlipidemic activity in rat assessed as reduction of tyloxapol-induced plasma total cholesterol level at 150 umol/kg, ip after 24 hrs relative to control.
In assay [4] the test system is Rattus norvegicus. The assay can be described thus: Antihyperlipidemic activity in rat assessed as reduction of tyloxapol-induced plasma low density lipoprotein cholesterol level at 150 umol/kg, ip after 24 hrs relative to control.

Regarding `CC(C)Cc1ccc(C(C)C(=O)O)cc1` (stereo unspecified) [IBUPROFEN], in assay [1], the inhibition in vivo at 150 µmol/kg came to 36%.
On the same count and under the same terms, next, `O=C(O)c1ccccc1Nc1cccc(C(F)(F)F)c1` [FLUFENAMIC ACID]: 19%.
Regarding `Cc1c(Cl)cccc1Nc1ccccc1C(=O)N1CCSCC1`, the inhibition in vivo at 150 µmol/kg amounted to 80% in assay [2], 65.9% in assay [3], 70.5% in assay [4] and 45% in assay [1].
Take `Cc1c(Cl)cccc1Nc1ccccc1C(=O)O` [TOLFENAMIC ACID]: the inhibition in vivo at 150 µmol/kg in assay [1] amounted to 24%.
Same read-out and setting: next, `O=C(O)Cc1ccccc1Nc1c(Cl)cccc1Cl` [DICLOFENAC]: 37%.
As to `COc1ccc2cc([C@H](C)C(=O)O)ccc2c1` [NAPROXEN], the inhibition in vivo at 150 µmol/kg in assay [1] came out at 11%.
Same read-out and setting: next, `COc1ccc2c(c1)c(CC(=O)O)c(C)n2C(=O)c1ccc(Cl)cc1` [INDOMETHACIN]: 42%.
`O=C(Cc1ccccc1Nc1c(Cl)cccc1Cl)N1CCSCC1`: the inhibition in vivo at 150 µmol/kg in assay [2] amounted to 46.4%; in assay [3], 44.1%; in assay [4], 70.8%; in assay [1] it was 40%.
The corresponding values for `Cc1cccc(Nc2ccccc2C(=O)N2CCSCC2)c1C` are 81.5%, 80.5%, 71.3% and 46%.
The corresponding values for `CC(C)Cc1ccc(C(C)C(=O)N2CCSCC2)cc1` (stereo unspecified) are 64.2%, 60.3%, 57.6% and 41%.
Regarding `O=C(c1ccccc1Nc1cccc(C(F)(F)F)c1)N1CCSCC1`, the inhibition in vivo at 150 µmol/kg in assay [2] worked out at 54.1%; in assay [3], 52.8%; in assay [4] it was 64.2%; in assay [1], 44%.
For `COc1ccc2c(c1)c(CC(=O)N1CCSCC1)c(C)n2C(=O)c1ccc(Cl)cc1`, the inhibition in vivo at 150 µmol/kg in assay [2] worked out at 79.5%; in assay [3] it was 73%; in assay [4], 83%; in assay [1] it was 38%.
In the same order, the values of `COc1ccc2cc(C(C)C(=O)N3CCSCC3)ccc2c1` (stereo unspecified) are 61.3%, 57.8%, 81.4% and 62%.
`O=C(Cc1c[nH]c2ccccc12)N1CCSCC1`: the inhibition in vivo at 150 µmol/kg in assay [1] was found to be 29%.
The same measure, in the same setting: the value for `Cc1cccc(Nc2ccccc2C(=O)O)c1C` [MEFENAMIC ACID] was 44%; that for `O=C(CCCCC1CCSS1)N1CCSCC1` (stereo unspecified) was 59%.
Consider `CC(C(=O)N1CCSCC1)c1cccc(C(=O)c2ccccc2)c1` (stereo unspecified), for which the inhibition in vivo at 150 µmol/kg in assay [2] was found to be 43%; in assay [3], 49%; in assay [4] it was 64.9%; in assay [1] it was 60%.

One may read the inhibition in vivo as the relative decrease from the control value, in per cent.

For the origin of these results see ChEMBL document CHEMBL3751779, “Amides of non-steroidal anti-inflammatory drugs with thiomorpholine can yield hypolipidemic agents with improved anti-inflammatory activity” (Bioorg Med Chem Lett, 2016).
